Laboratory results as given in patent US20100249082A1, “MODULATORS OF HYPOXIA INDUCIBLE FACTOR-1 AND RELATED USES” (Bionaut Pharmaceuticals INC., priority 2007, published 2010).

Columns and labels:
[1] = cited from earlier work; for max. plasma concentration: in vivo
[2] = Sample solubility noted in the rubidium uptake assay; type: physicochemical; settings: DMSO 1.0%
[3] = target: T1, Na^+, K^+-ATPase (Homo sapiens, UniProt P05023); assay: cell-based; settings: for Rank order: HEK-293, ranked on potency (IC50 value); for inhibition at 0.01 µM / inhibition at 0.1 µM / inhibition at 1 µM / inhibition at 5 µM / inhibition at 10 µM / inhibition at 50 µM: HEK293, HEK-293; for inhibition at 0.01 µM: Log[drug](M) −8.0; for inhibition at 5 µM: Log[drug](M) −5.3; for inhibition at 10 µM: Log[drug](M) −5.0; for inhibition at 50 µM: Log[drug](M) −4.3; for Sample Solubility: HEK-293 screen test wells, 1% DMSO
T1 construct: The HEK-293 cell line endogenously expressing Na^+, K^+-ATPase; endogenous in cells; host or cells: HEK-293
Method: Cells were plated at a density of 50,000 cells/well in 96-well microplates and incubated at 37° C., 5% CO2 until 80-90% confluency was attained

[4] = target: Na^+, K^+-ATPase (Cricetulus griseus, UniProt A0A8C2N4Z0); assay: cell-based; settings: for inhibition at 0.5 µM / inhibition at 1 µM / inhibition at 5 µM / inhibition at 10 µM / inhibition at 50 µM / inhibition at 100 µM / inhibition at 200 µM / inhibition at 500 µM: CHO-K1; for remaining activity at 0.5 µM / remaining activity at 1 µM / remaining activity at 5 µM / remaining activity at 10 µM / remaining activity at 50 µM / remaining activity at 100 µM / remaining activity at 200 µM / remaining activity at 500 µM: CHO-K1, 0.5 h, read-out: Normalized Uptake (%)
Method: (§1) Compounds were screened using Ion Channel Research (ICR) technology and a non-radioactive Rubidium Uptake Assay
(§2) For all the test compounds and standard blockers, 100× solutions were used to prepare 1× test doses for Na^+, K^+-ATPase screen in CHO cell line. The final DMSO concentration in each well was 1%.
(§3) • 1. […] Rb^+ Uptake: Cells were washed with 200 μl of Rb^+ Uptake Buffer once and R^+ loaded by application of 198 μl R^+ Uptake Buffer. Compounds were added at 2 μl/well of a 100× stock solution in 100% DMSO in the uptake buffer followed by incubation for 30 minutes at room temperature (c. 22° C.). The total volume in each well was 200 μl (198 μl of R^+ Uptake Buffer and 2 μl of the 100× compound). The 100× compound solution gets diluted in R^+ Uptake Buffer to 1× and the DMSO to 1%. • 3. Wash: Residual R^+ and compound were removed by four successive washes with 200 μl of SPA-Wash Buffer. • 4. Cell Lysis: Intracellular samples were obtained by whole cell lysis with the application of 200 μl Lysis Solution. • 5. Analysis: The level of R^+ in the intracellular samples was measured by ICR8000 (Aurora Biomed Inc., Vancouver, Canada). using flame atomic absorption spectroscopy.

[5] = tested on: Na^+, K^+-ATPase; assay: cell-based; settings: for Inhibition (%) / Normalized Uptake (%): CHO-K1; for Sample Solubility: CHO-K1 screen test wells, 1% DMSO
Method: as §1, §2, §3

[6] = tested on: HIF-1α expression; assay: Immunoblotting for hypoxia-mediated HIF-1α induction in human tumor cells (Caki-1, Panc-1); type: cell-based; settings: Caki-1 or Panc-1 cells under hypoxia
[7] = tested on: HIF-1α accumulation; assay: Western blot of HIF-1α induced by PHD inhibitor L-mimosone under normoxia in Hep3B cells; type: cell-based; settings: 200 μM L-mimosone for 18 hours, Western blotting
Method: Abundance of HIF1α and β-actin was determined by Western blotting.

Compound | max. plasma concentration [1] | IC50 [3] | Rank order [3] | IC50 [4] | Sample Solubility [5] | inhibition at 0.01 µM [3] | inhibition at 0.1 µM ([3]; Log[drug](M) −7.0) | inhibition at 0.1 µM ([3]; Log[drug](M) −7.3) | inhibition at 1 µM ([3]; Log[drug](M) −6.0) | inhibition at 1 µM ([3]; Log[drug](M) −6.3) | inhibition at 5 µM [3] | inhibition at 10 µM [3] | inhibition at 50 µM [3] | Sample Solubility [3] | inhibition at 0.5 µM [4] | inhibition at 1 µM [4] | inhibition at 5 µM [4] | inhibition at 10 µM [4] | inhibition at 50 µM [4] | inhibition at 100 µM [4] | also measured
C[C@@H]1O[C@@H](O[C@H]2C[C@@H](O)[C@]3(CO)[C@H]4[C@H](O)C[C@]5(C)[C@@H](C6=CC(=O)OC6)CC[C@]5(O)[C@@H]4CC[C@]3(O)C2)[C@H](O)[C@H](O)[C@H]1O [BNC1, ouabain] | about 0.03 μg/mL | – | – | – | – | – | – | – | – | – | – | – | – | – | – | – | – | – | – | – | –
C[C@@H]1O[C@@H](O[C@@H]2C=C3CC[C@@H]4[C@H](CC[C@]5(C)[C@@H](c6ccc(=O)oc6)CC[C@]45O)[C@@]3(C)CC2)[C@H](O)[C@H](O)[C@H]1O [BNC4, proscillaridin, reference compound] | about 0.1 μg/mL | 0.24 µM | 1 | 46.4 µM | Good | – | – | – | – | – | – | – | – | – | – | – | – | – | – | – | Sample Solubility [2]: Good; Inhibition (%) ([5]; dose 0.50 uM): 1.3%; Normalized Uptake (%) ([5]; dose 0.50 uM): 99.4%; Inhibition (%) ([5]; dose 1.0 uM): 0.0%; Normalized Uptake (%) ([5]; dose 1.0 uM): 100.3%; Inhibition (%) ([5]; dose 5.0 uM): 9.0%; Normalized Uptake (%) ([5]; dose 5.0 uM): 93.8%; Inhibition (%) ([5]; dose 10 uM): 20.6%; Normalized Uptake (%) ([5]; dose 10 uM): 80.5%; Inhibition (%) ([5]; dose 50 uM): 51.8%; Normalized Uptake (%) ([5]; dose 50 uM): 54.6%; Inhibition (%) ([5]; dose 100 uM): 69.8%; Normalized Uptake (%) ([5]; dose 100 uM): 44.0%; Inhibition (%) ([5]; dose 200 uM): 86.7%; Normalized Uptake (%) ([5]; dose 200 uM): 38.2%; Inhibition (%) ([5]; dose 500 uM): 100.0%; Normalized Uptake (%) ([5]; dose 500 uM): 28.7%; plasma half-life in human ([1]; human, according to the literature): about 40 hours; Potency in inhibiting HIF-1α expression relative to BNC1 [6]: about 10 times; Effect on HIF-1α accumulation induced by L-mimosone [7]: eliminated HIF-1α accumulation
C[C@]12CCC(=NOCCN3CCOCC3)C=C1CCC1C2CC[C@]2(C)[C@@H](c3ccc(=O)oc3)CC[C@]12O (stereo partly drawn) [BP245, 3-[2-(Morpholinoethoxy)imino]-scillarinone] | – | 0.732 µM | 2 | 93.2 µM | Good | 0% | 22.1% | 8.3% | 56% | 36% | 92.3% | 94.1% | 100% | Good | 0% | 2.9% | 4.2% | 6.6% | 23.7% | 44.9% | inhibition at 200 µM [4]: 86.5%; inhibition at 500 µM [4]: 100%; remaining activity at 0.5 µM [4]: 98.9%; remaining activity at 1 µM [4]: 96.9%; remaining activity at 5 µM [4]: 96%; remaining activity at 10 µM [4]: 94.3%; remaining activity at 50 µM [4]: 82.4%; remaining activity at 100 µM [4]: 67.6%; remaining activity at 200 µM [4]: 38.7%; remaining activity at 500 µM [4]: 29.3%
C[C@]12CCC(=NOCCCN3CCCCC3)C=C1CCC1C2CC[C@]2(C)[C@@H](c3ccc(=O)oc3)CC[C@]12O (stereo partly drawn) [BP246, 3-[3-(Piperidinopropoxy)imino]-scillarinone] | – | 0.335 µM | 1 | 57.8 µM | Good | 0% | 28.5% | 13.9% | 79.1% | 48.5% | 96.3% | 96.1% | 100% | Good | 0% | 2.2% | 12% | 21.5% | 42% | 64.7% | inhibition at 200 µM [4]: 89.3%; inhibition at 500 µM [4]: 100%; remaining activity at 0.5 µM [4]: 95.3%; remaining activity at 1 µM [4]: 93.4%; remaining activity at 5 µM [4]: 84.8%; remaining activity at 10 µM [4]: 76.6%; remaining activity at 50 µM [4]: 58.7%; remaining activity at 100 µM [4]: 39%; remaining activity at 200 µM [4]: 17.5%; remaining activity at 500 µM [4]: 8.2%
